# In patent US8299056B2 (Signal Pharmaceuticals, LLC, priority 2008, dated 2012):
# Molecular target: T1, Syk (Homo sapiens, UniProt P43405)
# T1 construct: purchased Carna Biosciences
# Assay: Syk HTRF assay
# Type: biochemical
# Settings: IC50 activity level, read-out: Activity Level
# How it was run: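 Read-out is the 665 nm/615 nm time-resolved fluorescence ratio after EDTA stop and Eu-anti-phosphotyrosine plus streptavidin-DyLight 647 detection. Reaction ran 1 h at room temperature with start mix of 87.5 μM ATP and 80 nM substrate peptide in pH 7.6 HEPES/MgCl2 buffer.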
row,IC50,Compound
1,500 to 1000 nM,"N[C@H]1CC[C@@H](Oc2cccc3nc(Nc4ccc(C(F)(F)F)cc4)nn23)CC1 [Example 423, cis-5-(4-aminocyclohexyloxy)-N-(4-(trifluoromethyl)phenyl)-[1,2,4]triazolo[1,5-a]pyridin-2-amine]"
2,0.005 to 250 nM,"COc1cc(-c2cccc3nc(Nc4ccc5c(c4)NC(=O)C5(C)C)nn23)ccn1 [Example 559, 6-(5-(2-methoxypyridin-4-yl)-[1,2,4]triazolo[1,5-a]pyridin-2-ylamino)-3,3-dimethylindolin-2-one]"
3,1000 to 10000 nM,"C[C@@H](CN)Cc1cccc2nc(Nc3ccccc3)nn12 [Example 458, (R)-5-(3-amino-2-methylpropyl)-N-phenyl-[1,2,4]triazolo[1,5-a]pyridin-2-amine]"
4,500 to 1000 nM,"O[C@@H]1CCC[C@@H]1Nc1cccc2nc(Nc3ccc(C(F)(F)F)cc3)nn12 [Example 406, (1R,2S)-2-(2-(4-(trifluoromethyl)phenylamino)-[1,2,4]triazolo[1,5-a]pyridin-5-ylamino)cyclopentanol]"
5,0.005 to 250 nM,"Nc1n[nH]c2cc(Nc3nc4cccc(NC5CCCNC5)n4n3)ccc12 (stereo in doubt) [Example 450, (R)-N^2-(3-amino-1H-indazol-6-yl)-N^5-(piperidin-3-yl)-[1,2,4]triazolo[1,5-a]pyridin-2,5-diamine]"
6,0.005 to 250 nM,"Nc1n[nH]c2cc(-c3cccc4nc(Nc5ccccc5)nn34)ccc12 [Example 439, 5-(3-amino-1H-indazol-6-yl)-N-phenyl-[1,2,4]triazolo[1,5-a]pyridin-2-amine]"
7,500 to 1000 nM,"c1ccc(Nc2nc3cccc(NC4CCNCC4)n3n2)cc1 [Example 523, N^2-phenyl-N^5-(piperidin-4-yl)-[1,2,4]triazolo[1,5-a]pyridine-2,5-diamine]"
8,1000 to 10000 nM,"OC[C@H](Nc1cccc2nc(Nc3ccc(C(F)(F)F)cc3)nn12)c1ccccc1 [Example 412, (R)-2-phenyl-2-(2-(4-(trifluoromethyl)phenylamino)-[1,2,4]triazolo[1,5-a]pyridin-5-ylamino)ethanol]"
9,0.005 to 250 nM,"NC(=O)c1ccc(Nc2nc3cccc(N[C@H]4CC[C@@H](N)CC4)n3n2)cc1 [Example 493, cis-4-(5-(4-aminocyclohexylamino)-[1,2,4]triazolo[1,5-a]pyridin-2-ylamino)benzamide]"
10,0.005 to 250 nM,"Cc1n[nH]c2cc(Nc3nc4cccc(C(F)(F)C5CCOCC5)n4n3)ccc12 [Example 562, 5-(difluoro(tetrahydro-2H-pyran-4-yl)methyl)-N-(3-methyl-1H-indazol-6-yl)-[1,2,4]triazolo[1,5-a]pyridin-2-amine]"
11,0.005 to 250 nM,"NCCNc1cc(-c2cccc3nc(Nc4ccccc4)nn23)ccn1 [Example 447, N^1-(4-(2-(phenylamino)-[1,2,4]triazolo[1,5-a]pyridin-5-yl)pyridin-2-yl)ethane-1,2-diamine]"

# Same assay, conditions: activity levels A-D, read-out: Activity Level (IC50 in the Syk HTRF assay)
row,IC50,Compound
1,0.005 to 250 nM,"OCC1CN(c2cccc3nc(Nc4ccc(C(F)(F)F)cc4)nn23)C1 [Example 259, (1-(2-(4-(trifluoromethyl)phenylamino)-[1,2,4]triazolo[1,5-a]pyridin-5-yl)azetidin-3-yl)methanol]"
2,500 to 1000 nM,"Cc1cc(Nc2nc3cccc(N[C@H]4CC[C@@H](O)CC4)n3n2)ccn1 [Example 367, cis-4-(2-(2-methylpyridin-4-ylamino)-[1,2,4]triazolo[1,5-a]pyridin-5-ylamino)cyclohexanol]"
3,0.005 to 250 nM,"Cc1cc(Nc2nc3cccc(N[C@H]4CC[C@@H](O)CC4)n3n2)cc(C)c1F [Example 279, cis-4-(2-(4-fluoro-3,5-dimethylphenylamino)-[1,2,4]triazolo[1,5-a]pyridin-5-ylamino)cyclohexanol]"
4,1000 to 10000 nM,"CNC(=O)c1ccc(Nc2nc3cccc(OC4CCNCC4)n3n2)cc1 [Example 284, N-methyl-4-(5-(piperidin-4-yloxy)-[1,2,4]triazolo[1,5-a]pyridin-2-ylamino)benzamide]"
5,1000 to 10000 nM,"C[C@H](CO)Nc1cccc2nc(Nc3ccc(C(F)(F)F)cc3)nn12 [Example 328, (R)-2-(2-(4-(trifluoromethyl)phenylamino)-[1,2,4]triazolo[1,5-a]pyridin-5-ylamino)propan-1-ol]"
6,500 to 1000 nM,"CNC(=O)c1ccc(Nc2nc3cccc(N4CCCCC4)n3n2)cc1 [Example 247, N-methyl-4-(5-(piperidin-1-yl)-[1,2,4]triazolo[1,5-a]pyridin-2-ylamino)benzamide]"
7,1000 to 10000 nM,"OCC1CCCN(Cc2cccc3nc(Nc4ccc(C(F)(F)F)cc4)nn23)C1 (centres unmarked) [Example 273, (1-((2-(4-(trifluoromethyl)phenylamino)-[1,2,4]triazolo[1,5-a]pyridin-5-yl)methyl)piperidin-3-yl)methanol]"
8,1000 to 10000 nM,"O[C@H]1CCN(Cc2cccc3nc(Nc4ccc(C(F)(F)F)cc4)nn23)C1 [Example 336, (S)-1-((2-(4-(trifluoromethyl)phenylamino)-[1,2,4]triazolo[1,5-a]pyridin-5-yl)methyl)pyrrolidin-3-ol]"
9,1000 to 10000 nM,"O[C@@H]1CCC[C@H](Nc2cccc3nc(Nc4ccc(C(F)(F)F)cc4)nn23)C1 (single isomer, unassigned; enantiomer 1) [Example 223, cis-3-(2-(4-(trifluoromethyl)phenylamino)-[1,2,4]triazolo[1,5-a]pyridin-5-ylamino)cyclohexanol (enantiomer 1)]"
10,0.005 to 250 nM,"Cc1n[nH]c2cc(Nc3nc4cccc(CC5CCOCC5)n4n3)ccc12 [Example 199, N-(3-methyl-1H-indazol-6-yl)-5-((tetrahydro-2H-pyran-4-yl)methyl)-[1,2,4]triazolo[1,5-a]pyridin-2-amine]"
11,1000 to 10000 nM,"OCCCOc1cccc2nc(Nc3ccc(C(F)(F)F)cc3)nn12 [Example 304, 3-(2-(4-(trifluoromethyl)phenylamino)-[1,2,4]triazolo[1,5-a]pyridin-5-yloxy)propan-1-ol]"
12,0.005 to 250 nM,"Cn1ncc2ccc(Nc3nc4cccc(N[C@H]5CC[C@@H](O)CC5)n4n3)cc21 [Example 364, cis-4-(2-(1-methyl-1H-indazol-6-ylamino)-[1,2,4]triazolo[1,5-a]pyridin-5-ylamino)cyclohexanol]"
13,1000 to 10000 nM,"Oc1ccc(Nc2nc3cccc(N[C@H]4CC[C@@H](O)CC4)n3n2)cn1 [Example 371, cis-5-(5-(4-hydroxycyclohexylamino)-[1,2,4]triazolo[1,5-a]pyridin-2-ylamino)pyridin-2-ol]"
14,500 to 1000 nM,"NC(=O)[C@H]1CC[C@@H](Oc2cccc3nc(Nc4ccc(C(F)(F)F)cc4)nn23)CC1 [Example 344, cis-4-(2-(4-(trifluoromethyl)phenylamino)-[1,2,4]triazolo[1,5-a]pyridin-5-yloxy)cyclohexanecarboxamide]"

# Same assay, conditions: read-out: Activity Level (Syk HTRF assay IC50)
row,IC50,Compound
1,0.005 to 250 nM,"CC1(C)C(=O)Nc2cc(Nc3nc4cccc(OC5CCOCC5)n4n3)ccc21 [Example 168, 3,3-dimethyl-6-(5-(tetrahydro-2H-pyran-4-yloxy)-[1,2,4]triazolo[1,5-a]pyridin-2-ylamino)indolin-2-one]"
2,500 to 1000 nM,"c1cc(CC2CCOCC2)n2nc(Nc3cnc4cn[nH]c4c3)nc2c1 [compound 106, N-(5-((tetrahydro-2H-pyran-4-yl)methyl)-[1,2,4]triazolo[1,5-a]pyridin-2-yl)-1H-pyrazolo[4,3-b]pyridin-6-amine]"
3,0.005 to 250 nM,"Cn1ncc2ccc(Nc3nc4cccc(CC5CCOCC5)n4n3)cc21 [Example 160, N-(1-methyl-1H-indazol-6-yl)-5-((tetrahydro-2H-pyran-4-yl)methyl)-[1,2,4]triazolo[1,5-a]pyridin-2-amine]"
4,0.005 to 250 nM,"c1ccc(-c2cccc3nc(Nc4ccc(-c5ncn[nH]5)cc4)nn23)cc1 [compound 56, N-(4-(1H-1,2,4-triazol-5-yl)phenyl)-5-phenyl-[1,2,4]triazolo[1,5-a]pyridin-2-amine]"
5,500 to 1000 nM,"COc1cncc(Nc2nc3cccc(-c4ccccc4)n3n2)c1 [compound 38, N-(5-methoxypyridin-3-yl)-5-phenyl-[1,2,4]triazolo[1,5-a]pyridin-2-amine]"
6,1000 to 10000 nM,"CNC(=O)c1ccc(Nc2nc3cccc(-c4ccc(C(=O)O)cc4)n3n2)cc1 [compound 29, 4-(2-(4-(methylcarbamoyl)phenylamino)-[1,2,4]triazolo[1,5-a]pyridin-5-yl)benzoic acid]"
7,1000 to 10000 nM,"CC1(C)NC(=O)c2cc(Nc3nc4cccc(CC5CCOCC5)n4n3)ccc21 [compound 113, 3,3-dimethyl-6-(5-((tetrahydro-2H-pyran-4-yl)methyl)-[1,2,4]triazolo[1,5-a]pyridin-2-ylamino)isoindolin-1-one]"
8,0.005 to 250 nM,O=S1(=O)NCc2ccc(Nc3nc4cccc(-c5ccccc5)n4n3)cc21 [compound 37]
9,1000 to 10000 nM,"CNC(=O)c1ccc(Nc2nc3cccc(-c4ccccc4Cl)n3n2)cc1 [compound 22, 4-(5-(2-chlorophenyl)-[1,2,4]triazolo[1,5-a]pyridin-2-ylamino)-N-methylbenzamide]"
10,0.005 to 250 nM,"CC1(O)CN(c2cccc3nc(Nc4ccc5c(c4)NC(=O)C5(C)C)nn23)C1 [Example 171, 6-(5-(3-hydroxy-3-methylazetidin-1-yl)-[1,2,4]triazolo[1,5-a]pyridin-2-ylamino)-3,3-dimethylindolin-2-one]"
11,0.005 to 250 nM,"Cc1cc(Nc2nc3cccc(NC4CCOCC4)n3n2)cc2c1cnn2C [Example 148, N^2-(1,4-dimethyl-1H-indazol-6-yl)-N^5-(tetrahydro-2H-pyran-4-yl)-[1,2,4]triazolo[1,5-a]pyridin-2,5-diamine]"
12,0.005 to 250 nM,"CC1(C)C(=O)Nc2cc(Nc3nc4cccc(CC5CCOCC5)n4n3)ccc21 [Example 176, 3,3-dimethyl-6-(5-((tetrahydro-2H-pyran-4-yl)methyl)-[1,2,4]triazolo[1,5-a]pyridin-2-ylamino)indolin-2-one]"
13,0.005 to 250 nM,"Cn1ncc2cc(Nc3nc4cccc(N[C@H]5CC[C@@H](O)CC5)n4n3)cnc21 [Example 139, cis-4-(2-(1-methyl-1H-pyrazolo[3,4-b]pyridin-5-ylamino)-[1,2,4]triazolo[1,5-a]pyridin-5-ylamino)cyclohexanol]"
